Measurements: patent US20050090522A1 (priority 2001, published 2005)
pEC50: −log10 of the molar value. Where two headings read alike, the source gives them in different places.

What was measured:
HIV-1 = HIV-1 single-round infectious luciferase reporter virus (pseudotype) assay in HeLa CD4 CCR5 cells; type: cell-based
How it was run: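 Reporter pseudovirus produced in 293 cells infected HeLa cells expressing CD4/CCR5 at MOI ~0.01, with compound present at <10 μM final. Infection was quantified as luciferase luminescence after 72 h.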

[1] = Metabolic stability in pooled human liver microsomes (HLM); conditions: 3 μM drug
Procedure: Metabolic Stability Studies of compounds in Liver Microsomes. The metabolic stability of compounds were investigated in pooled liver microsomes from humans. The human liver microsomes were obtained from BD Gentest (Lot #16, Woburn, Mass.) with a protein concentration of 20 mg/ml and a total cytochrome P450 (CYP) concentration of 0.55 nmol/mg protein. A stock solution of drug was prepared in acetonitrile at 1 mM. […] The incubation media consisted of potassium phosphate buffer (0.1 M, pH 7.4), liver microsomes (final concentration 0.9 mg/ml), magnesium chloride (0.033 mM), and a NADPH-regenerating system. […] The test compound was pre-incubated in the media for 2 min. The reaction was initiated by the addition of the cofactors. The incubation was carried out at 37° C. for 10 min. The reaction was terminated by drawing an aliquot of 100 μL from the incubation and adding into 200 μL of acetonitrile containing a reference compound as an […] analytical standard. Following vortex-mixing and centrifugation, an aliquot of 10 μL of the supernatant was analyzed by LC/MS.
GUIDELINES can be used to categorized test substances as low, intermediate or highly cleared compounds.
(§1) For accuracy, the determined measure of viral inhibition is an EC50; but the minimum plasma concentrations which should be maintained in a patient is generally believed to be at least four or five fold higher. […] Lower is better. • 4) Estimating potential exposure in man by measuring parameters such as AUC and rate of clearance by oral and iv dosing in rats. High exposure and low clearance was desired.
The stability of compounds were also evaluated to determine metabolic stability when incubated in in vitro preparations of human liver microsomes (HLM). This is one commonly used predictive system for evaluating the potential for human metabolism and projecting clearance rates in man. Compounds with low clearance rates were most desireable.

HeLa cells = assay: Cytotoxicity assay in HeLa cells (MTT dye reduction, CC50)
Procedure: • Virus production—Human embryonic Kidney cell line, 293, propagated in Dulbecco's Modified Eagle Medium (Life Technologies, Gaithersburg, Md.) containing 10% fetal Bovine serum (FBS, Sigma, St. Louis, Mo.). • Virus infection—Human epithelial cell line, HeLa, expressing the HIV-1 receptors CD4 and CCR^5 was propagated in Dulbecco's Modified Eagle Medium (Life Technologies, Gaithersburg, Md.) containing 10% fetal Bovine serum (FBS, Sigma, St. Louis, Mo.) and supplemented with 0.2 mg/mL Geneticin (Life Technologies, Gaithersburg, Md.) and 0.4 mg/mL Zeocin (Invitrogen, Carlsbad, Calif.). […] Transfections were performed using lipofectAMINE PLUS reagent as described by the manufacturer (Life Technologies, Gaithersburg, Md.). Experiment • 1. Compound was added to HeLa CD4 CCR5 cells plated in 96 well plates at a cell density of 5×10^4 cells per well in 100 μl Dulbecco's Modified Eagle Medium containing 10% fetal Bovine serum at a concentration of […]. • 2. 100 μl of single-round infectious reporter virus in Dulbecco's Modified Eagle Medium was then added to the plated cells and compound at an approximate multiplicity of infection (MOI) of 0.01, resulting in a final volume of 200 μl per well and a final compound concentration of <10 μM. • 3. Samples were harvested 72 h after infection. • 4. Viral infection was monitored by measuring luciferase expression from viral DNA in the infected cells using a luciferase reporter gene assay kit (Roche Molecular Biochemicals, Indianapolis, Ind.). Infected cell supernatants were removed and 50 μl of Dulbecco's Modified Eagle Medium (without phenol red) and 50 μl of luciferase assay reagent reconstituted as described by the manufacturer (Roche Molecular Biochemicals, Indianapolis, Ind.) was added per well. Luciferase activity was then quantified by measuring luminescence using a Wallac microbeta scintillation counter. • 5. […] An EC50 provides a method for comparing the antiviral potency of the compounds of this invention. The effective concentration for fifty percent inhibition (EC50) was calculated with the Microsoft Excel Xlfit curve fitting software. For each compound, curves were generated from percent inhibition calculated at 10 different concentrations by using a four paramenter logistic model (model 205). Table 1 is the key for the data in Tables 2-4. Cytoxicity assays were conducted with the same HeLa using methodology well known in the art.
as §1

[2] = Human immunodeficiency virus 1, HeLa-CD4/CCR5, read-out: EC50 Group from TABLE 1, HeLa CD4 CCR5 cells, single-round infectious luciferase reporter virus
[3] = Human immunodeficiency virus 1, HeLa-CD4/CCR5, read-out: EC50 category, HIV-1 single-round reporter virus assay, category 1/2/3 per Table A1 key
[4] = pooled human liver microsomes, Low/Intermediate/High
[5] = cytotoxicity, Yes = CC50 above 100 uM, No = not
[6] = Human immunodeficiency virus 1, HeLa-CD4/CCR5, read-out: EC50 category, initial pseudotype assay, key in Table A1
[7] = HeLa cells, six days with drug, MTT
[8] = Human immunodeficiency virus 1, HeLa-CD4/CCR5, read-out: EC50 Group from Table 1, Table 4, HeLa CD4 CCR5 cells, single-round luciferase reporter virus

Compound	pEC50 (HIV-1; [2])	pEC50 (HIV-1; [3])	HLM predicted human clearance class [1, 4]	CC50 > 100 uM (HeLa cells; [5])	pEC50 (HIV-1; [6])	CC50 > 100 uM (HeLa cells; [7])	HLM predicted human clearance class ([1]; 0.9 mg/ml microsomes, 37° C., 10 min)	pEC50 (HIV-1; [8])
CN(C)C(=O)c1cc(-c2ncc(F)c3c(C(=O)C(=O)N4CCN(C(=O)c5ccccc5)CC4)c[nH]c23)n[nH]1 [Example 212]	> 6.00	> 9.70	Low (0-0.100)					
COc1cnc(-n2cnc(C)c2)c2[nH]cc(C(=O)C(=O)N3CCN(C(=O)c4ccccc4)CC3)c12 [Example 318]	> 6.00	6.00 to 9.70	Low (0-0.100)	Yes				
CNC(=O)c1cc(-c2ncc(F)c3c(C(=O)C(=O)N4CCN(C(=O)c5ccccc5)CC4)c[nH]c23)n[nH]1 [Example 211]	> 6.00	> 9.70	Intermediate (0.101-0.200)					
Cc1ccnn1-c1ncc(F)c2c(C(=O)C(=O)N3CCN(C(=O)c4ccccc4)CC3)c[nH]c12 [Example 312]	> 6.00	6.00 to 9.70	Low (0-0.100)	Yes				
O=C(C(=O)N1CCN(C(=O)c2ccccc2)CC1)c1c[nH]c2c(N3CCOCC3)ncc(F)c12 [Example 222]	> 6.00	6.00 to 9.70	Low (0-0.100)	Yes				
COc1cnc(-n2ncc(C)n2)c2[nH]cc(C(=O)C(=O)N3CCN(C(=O)c4ccccc4)CC3)c12 [Example 327]	> 6.00				6.00 to 9.70	Yes	Low (0-0.100)	
Cc1noc(-c2ncc(F)c3c(C(=O)C(=O)N4CCN(C(=O)c5ccccc5)CC4)c[nH]c23)n1 [Example 300]	> 6.00	6.00 to 9.70	Low (0-0.100)	Yes				
Cn1ncnc1-c1ncc(F)c2c(C(=O)C(=O)N3CCN(C(=O)c4ccccc4)CC3)c[nH]c12 [Example 301]	> 6.00	6.00 to 9.70		Yes				
COc1cnc(-c2cccn2C)c2[nH]cc(C(=O)C(=O)N3CCN(C(=O)c4ccccc4)CC3)c12 [Example 28, 1-benzoyl-4-[(4-methoxy-7-(11-methyl-pyrrol-2-yl)-6-azaindol-3-yl)oxoacetyl]piperazine]	> 6.00	< 6.00		No				
CNC(=O)c1ccn(-c2ncc(OC)c3c(C(=O)C(=O)N4CCN(C(=O)c5ccccc5)CC4)c[nH]c23)n1 [Example 276, 1-benzoyl-4-[(4-methoxy-7-(3-methylaminocarbonyl-pyrazol-1-yl)-6-azaindol-3-yl)-oxoacetyl]piperazine]	> 6.00	> 9.70		Yes				
O=C(C(=O)N1CCN(C(=O)c2ccccc2)CC1)c1c[nH]c2c(-c3cnccn3)ncc(F)c12 [Example 95, 1-benzoyl-4-[(4-fluoro-7-(pyrazin-2-yl)-6-azaindol-3-yl)-oxoacetyl]piperazine]	> 6.00	> 9.70	Intermediate (0.101-0.200)					
O=C(C(=O)N1CCN(C(=O)c2ccccc2)CC1)c1c[nH]c2c(-n3nccn3)ncc(F)c12 [Example 217]	> 6.00				6.00 to 9.70	Yes		
O=C(C(=O)N1CCN(C(=O)c2ccccc2)CC1)c1c[nH]c2c(-n3cccc3)ncc(F)c12 [Example 220]	> 6.00	6.00 to 9.70		Yes				
O=C(C(=O)N1CCN(C(=O)c2ccccc2)CC1)c1c[nH]c2c(-c3cc[nH]n3)ncc(F)c12 [Example 38, 1-benzoyl-4-[(4-fluoro-7-(pyrazol-3-yl)-6-azaindol-3-yl)-oxoacetyl]piperazine]	> 6.00	> 9.70	Low (0-0.100)					
COc1cnc(-c2ccn(C)n2)c2[nH]cc(C(=O)C(=O)N3CCN(C(=O)c4ccccc4)CC3)c12 [Example 22, 1-benzoyl-4-[(4-methoxy-7-(1-methyl-pyrazol-3-yl)-6-azaindol-3-yl)-oxoacetyl]piperazine]	> 6.00	> 9.70		No				
COc1cnc(-c2cncnc2)c2[nH]cc(C(=O)C(=O)N3CCN(C(=O)c4ccccc4)CC3)c12 [Example 40, 1-benzoyl-4-[(4-methoxy-7-(pyfimidin-5-yl)-6-azaindol-3-yl)-oxoacetyl]piperazine]	> 6.00	6.00 to 9.70		No				
COc1cnc(-n2cc(C)cn2)c2[nH]cc(C(=O)C(=O)N3CCN(C(=O)c4ccccc4)CC3)c12 [Example 191, 1-benzoyl-4-[(4-methoxy-7-(4-methylpyrazol-1-yl)-6-azaindol-3-yl)-oxoacetyl]piperazine]	> 6.00	6.00 to 9.70		Yes				
COc1cnc(-n2cccn2)c2[nH]cc(C(=O)C(=O)N3CCN(C(=O)c4ccccc4)CC3)c12 [Example 189, 1-benzoyl-4-[(4-methoxy-7-(1-pyrazolyl)-6-azaindol-3-yl)-oxoacetyl]piperazine]	> 6.00	6.00 to 9.70		Yes				
O=C(C(=O)N1CCN(C(=O)c2ccccc2)CC1)c1c[nH]c2c(-n3cccn3)ccnc12 [Example 208, 1-(4-Benzoyl-piperazin-1-yl)-2-(7-pyrazol-1-yl-1H-pyrrolo[3,2-b]pyridin-3-yl)-ethane-1,2-dione]		6.00 to 9.70		Yes				> 6.00
O=C(C(=O)N1CCN(C(=O)c2ccccc2)CC1)c1c[nH]c2c(-n3ccnn3)ccnc12 [Example 206, 1-(4-benzoyl-piperazin-1-yl)-2-(7-[1,2,3]triazol-1-yl-1H-pyrrolo[3,2-b]pyridin-3-yl)-ethane-1,2-dione]		6.00 to 9.70		Yes				> 6.00
C[C@@H]1CN(C(=O)c2ccccc2)CCN1C(=O)C(=O)c1c[nH]c2c(-c3nccs3)ncc(F)c12 [Example 37, 1-benzoyl-3-(R)-methyl-4-[(4-fluoro-7-(thiazol-2-yl)-6-azaindol-3-yl)-oxoacetyl]piperazine]	> 6.00	> 9.70		No				
CNC(=O)c1ccc(-c2ncc(OC)c3c(C(=O)C(=O)N4CCN(C(=O)c5ccccc5)CC4)c[nH]c23)o1 [Example 94, 1-benzoyl-4-[(4-methoxy-7-(2-methylaminocarbonyl-furan-5-yl)-6-azaindol-3-yl)-oxoacetyl]piperazine]	> 6.00	> 9.70		Yes				
